Values joined by “and” are separate entries in the source; they are usually repeats but may differ in a detail not shown here. Equal entries are not always repeated. Active and inactive are the calls of the source. How the calls were made is not given here.
Tested on: rodent lifetime carcinogenesis bioassay, tumor incidence TD50
Assay: carcinogenic potency in animals, long-term in vivo studies, CPDB compilation (AID 1745844)

ClC=C(Cl)Cl
carcinogen call (hamster, strain Syrian Golden, females, inhaled, site: any site (literature study), lesion: benign tumor, dosed 78 weeks, study length 130 weeks): negative (inactive) | TD50 (hamster, strain Syrian Golden, females, inhaled, site: any site (literature study), lesion: malignant tumor, dosed 78 weeks, study length 130 weeks): 9220 mg/kg/day (inactive) | carcinogen call (hamster, strain Syrian Golden, females, inhaled, site: liver, lesion: several types, types named in the paper, dosed 78 weeks, study length 130 weeks): negative (inactive) | TD50 (hamster, strain Syrian Golden, males, inhaled, site: any site (literature study), lesion: benign tumor, dosed 78 weeks, study length 130 weeks): 5640 mg/kg/day (inactive) | carcinogen call (hamster, strain Syrian Golden, males, inhaled, site: any site (literature study), lesion: malignant tumor, dosed 78 weeks, study length 130 weeks): negative (inactive) | carcinogen call (hamster, strain Syrian Golden, males, inhaled, site: liver, lesion: several types, types named in the paper, dosed 78 weeks, study length 130 weeks): negative (inactive) | TD50 (mouse, strain B6C3F1, females, by gavage, site: any site (literature study), lesion: several types, types named in the paper, dosed 78 weeks, study length 90 weeks): 1850 mg/kg/day | TD50 (mouse, strain B6C3F1, females, by gavage, site: any site (literature study), lesion: several types, types named in the paper, dosed 103 weeks, study length 105 weeks): 359 mg/kg/day | TD50 (mouse, strain B6C3F1, females, by gavage, site: liver + multiple organs + spleen, lesion: malignant lymphoma, histiocytic type + malignant lymphoma, mixed type + malignant lymphoma, lymphocytic type + malignant lymph, dosed 103 weeks, study length 105 weeks): 1350 mg/kg/day and 1470 mg/kg/day | TD50 (mouse, strain B6C3F1, females, by gavage, site: liver, lesion: hepatocellular adenoma + hepatocellular carcinoma + neoplastic nodule, dosed 78 weeks, study length 90 weeks): 1930 mg/kg/day | TD50 (mouse, strain B6C3F1, females, by gavage, site: liver, lesion: hepatocellular adenoma + hepatocellular carcinoma + neoplastic nodule, dosed 103 weeks, study length 105 weeks): 411 mg/kg/day | TD50 (mouse, strain B6C3F1, females, by gavage, site: liver, lesion: hepatocellular adenoma + hepatocellular carcinoma, dosed 103 weeks, study length 105 weeks): 411 mg/kg/day | TD50 (mouse, strain B6C3F1, females, by gavage, site: liver, lesion: hepatocellular adenoma, dosed 103 weeks, study length 105 weeks): 579 mg/kg/day | TD50 (mouse, strain B6C3F1, females, by gavage, site: liver, lesion: hepatocellular carcinoma, dosed 78 weeks, study length 90 weeks): 1930 mg/kg/day | TD50 (mouse, strain B6C3F1, females, by gavage, site: liver, lesion: hepatocellular carcinoma, dosed 103 weeks, study length 105 weeks): 673 mg/kg/day | TD50 (mouse, strain B6C3F1, females, by gavage, site: lung, lesion: alveolar/bronchiolar adenoma + alveolar/bronchiolar carcinoma, dosed 78 weeks, study length 90 weeks): 4350 mg/kg/day | TD50 (mouse, strain B6C3F1, females, by gavage, site: lung, lesion: alveolar/bronchiolar adenoma + alveolar/bronchiolar carcinoma, dosed 103 weeks, study length 105 weeks): 3850 mg/kg/day | TD50 (mouse, strain B6C3F1, females, by gavage, site: lung, lesion: alveolar/bronchiolar adenoma, dosed 103 weeks, study length 105 weeks): 2780 mg/kg/day | TD50 (mouse, strain B6C3F1, females, by gavage, site: multiple organs, lesion: malignant lymphoma, lymphocytic type, dosed 103 weeks, study length 105 weeks): 4880 mg/kg/day | TD50 (mouse, strain B6C3F1, females, inhaled, site: any site (literature study), lesion: malignant tumor, dosed 78 weeks, study length 154 weeks): 2080 mg/kg/day | TD50 (mouse, strain B6C3F1, females, inhaled, site: any site (literature study), lesion: several types, types named in the paper, dosed 78 weeks, study length 154 weeks): 1320 mg/kg/day | TD50 (mouse, strain B6C3F1, females, inhaled, site: liver, lesion: hepatoma, dosed 78 weeks, study length 154 weeks): 13600 mg/kg/day | TD50 (mouse, strain B6C3F1, females, inhaled, site: lung, lesion: one or several types, types not named, dosed 78 weeks, study length 154 weeks): 6320 mg/kg/day | TD50 (mouse, strain B6C3F1, females, inhaled, site: thyroid gland, lesion: adenoma, dosed 78 weeks, study length 154 weeks): 2.23e+06 mg/kg/day | TD50 (mouse, strain B6C3F1, females, inhaled, site: thyroid gland, lesion: carcinoma, dosed 78 weeks, study length 154 weeks): 131000 mg/kg/day | TD50 (mouse, strain B6C3F1, males, by gavage, site: Harderian gland, lesion: adenoma, NOS + acinar-cell adenoma + papillary adenoma, dosed 103 weeks, study length 105 weeks): 3830 mg/kg/day | TD50 (mouse, strain B6C3F1, males, by gavage, site: any site (literature study), lesion: several types, types named in the paper, dosed 78 weeks, study length 90 weeks): 553 mg/kg/day | TD50 (mouse, strain B6C3F1, males, by gavage, site: any site (literature study), lesion: several types, types named in the paper, dosed 103 weeks, study length 105 weeks): 332 mg/kg/day | TD50 (mouse, strain B6C3F1, males, by gavage, site: liver, lesion: hepatocellular adenoma + hepatocellular carcinoma + neoplastic nodule, dosed 78 weeks, study length 90 weeks): 421 mg/kg/day | TD50 (mouse, strain B6C3F1, males, by gavage, site: liver, lesion: hepatocellular adenoma + hepatocellular carcinoma + neoplastic nodule, dosed 103 weeks, study length 105 weeks): 239 mg/kg/day | TD50 (mouse, strain B6C3F1, males, by gavage, site: liver, lesion: hepatocellular adenoma + hepatocellular carcinoma, dosed 103 weeks, study length 105 weeks): 239 mg/kg/day | TD50 (mouse, strain B6C3F1, males, by gavage, site: liver, lesion: hepatocellular adenoma, dosed 103 weeks, study length 105 weeks): 855 mg/kg/day | TD50 (mouse, strain B6C3F1, males, by gavage, site: liver, lesion: hepatocellular carcinoma, dosed 78 weeks, study length 90 weeks): 421 mg/kg/day | TD50 (mouse, strain B6C3F1, males, by gavage, site: liver, lesion: hepatocellular carcinoma, dosed 103 weeks, study length 105 weeks): 294 mg/kg/day | TD50 (mouse, strain B6C3F1, males, by gavage, site: lung, lesion: alveolar/bronchiolar adenoma + alveolar/bronchiolar carcinoma, dosed 78 weeks, study length 90 weeks): 7160 mg/kg/day | TD50 (mouse, strain B6C3F1, males, by gavage, site: lung, lesion: alveolar/bronchiolar adenoma + alveolar/bronchiolar carcinoma, dosed 103 weeks, study length 105 weeks): 4250 mg/kg/day | TD50 (mouse, strain B6C3F1, males, in drinking water, site: liver, lesion: hepatocellular adenoma, dosed 61 weeks, study length 61 weeks): 502 mg/kg/day | TD50 (mouse, strain B6C3F1, males, in drinking water, site: liver, lesion: hepatocellular carcinoma, dosed 61 weeks, study length 61 weeks): 16 mg/kg/day | TD50 (mouse, strain B6C3F1, males, inhaled, site: liver, lesion: angiosarcoma, dosed 78 weeks, study length 135 weeks): 77000 mg/kg/day | TD50 (mouse, strain B6C3F1, males, inhaled, site: liver, lesion: hepatoma, dosed 78 weeks, study length 135 weeks): 4530 mg/kg/day | TD50 (mouse, strain B6C3F1, males, inhaled, site: liver, lesion: hepatoma, dosed 78 weeks, study length 154 weeks): 5030 mg/kg/day | TD50 (mouse, strain Ha/ICR, females, by gavage, site: forestomach, lesion: one or several types, types not named, dosed 88 weeks, study length 88 weeks): 41.3 mg/kg/day (inactive) | TD50 (mouse, strain Ha/ICR, males, by gavage, site: forestomach, lesion: one or several types, types not named, dosed 88 weeks, study length 88 weeks): 16.9 mg/kg/day (inactive) | TD50 (mouse, strain Han:NMRI, females, inhaled, site: all sites, lesion: malignant lymphoma, dosed 78 weeks, study length 130 weeks): 846 mg/kg/day | carcinogen call (mouse, strain Han:NMRI, females, inhaled, site: any site (literature study), lesion: benign tumor, dosed 78 weeks, study length 130 weeks): negative (inactive) | TD50 (mouse, strain Han:NMRI, females, inhaled, site: any site (literature study), lesion: malignant tumor, dosed 78 weeks, study length 130 weeks): 573 mg/kg/day (inactive) | carcinogen call (mouse, strain Han:NMRI, females, inhaled, site: liver, lesion: several types, types named in the paper, dosed 78 weeks, study length 130 weeks): negative (inactive) | carcinogen call (mouse, strain Han:NMRI, females, inhaled, site: lung, lesion: alveolar/bronchiolar adenoma, dosed 78 weeks, study length 130 weeks): negative (inactive) | carcinogen call (mouse, strain Han:NMRI, females, inhaled, site: lung, lesion: alveolar/bronchiolar carcinoma, dosed 78 weeks, study length 130 weeks): negative (inactive) | carcinogen call (mouse, strain Han:NMRI, males, inhaled, site: all sites, lesion: malignant lymphoma, dosed 78 weeks, study length 130 weeks): negative (inactive) | carcinogen call (mouse, strain Han:NMRI, males, inhaled, site: any site (literature study), lesion: benign tumor, dosed 78 weeks, study length 130 weeks): negative (inactive) | carcinogen call (mouse, strain Han:NMRI, males, inhaled, site: any site (literature study), lesion: malignant tumor, dosed 78 weeks, study length 130 weeks): negative (inactive) | carcinogen call (mouse, strain Han:NMRI, males, inhaled, site: liver, lesion: hepatocellular adenoma, dosed 78 weeks, study length 130 weeks): negative (inactive) | carcinogen call (mouse, strain Han:NMRI, males, inhaled, site: liver, lesion: hepatocellular carcinoma, dosed 78 weeks, study length 130 weeks): negative (inactive) | carcinogen call (mouse, strain Han:NMRI, males, inhaled, site: liver, lesion: hepatoma, benign, dosed 78 weeks, study length 130 weeks): negative (inactive) | carcinogen call (mouse, strain Han:NMRI, males, inhaled, site: lung, lesion: alveolar/bronchiolar adenoma, dosed 78 weeks, study length 130 weeks): negative (inactive) | carcinogen call (mouse, strain Han:NMRI, males, inhaled, site: lung, lesion: malignant tumor, dosed 78 weeks, study length 130 weeks): negative (inactive) | TD50 (mouse, strain ICR, females, inhaled, site: any site (literature study), lesion: several types, types named in the paper, dosed 104 weeks, study length 107 weeks): 1900 mg/kg/day | TD50 (mouse, strain ICR, females, inhaled, site: liver, lesion: adenoma, dosed 104 weeks, study length 107 weeks): 42300 mg/kg/day | TD50 (mouse, strain ICR, females, inhaled, site: lung, lesion: adenocarcinoma, dosed 104 weeks, study length 107 weeks): 3380 mg/kg/day | TD50 (mouse, strain ICR, females, inhaled, site: lung, lesion: several types, types named in the paper, dosed 104 weeks, study length 107 weeks): 3370 mg/kg/day | TD50 (mouse, strain Swiss, females, inhaled, site: any site (literature study), lesion: malignant tumor, dosed 78 weeks, study length 145 weeks): 9840 mg/kg/day | TD50 (mouse, strain Swiss, females, inhaled, site: any site (literature study), lesion: several types, types named in the paper, dosed 78 weeks, study length 145 weeks): 9190 mg/kg/day | TD50 (mouse, strain Swiss, females, inhaled, site: liver, lesion: hepatoma, dosed 78 weeks, study length 145 weeks): 121000 mg/kg/day | TD50 (mouse, strain Swiss, females, inhaled, site: lung, lesion: one or several types, types not named, dosed 78 weeks, study length 145 weeks): 35400 mg/kg/day | TD50 (mouse, strain Swiss, males, inhaled, site: any site (literature study), lesion: malignant tumor, dosed 78 weeks, study length 145 weeks): 6320 mg/kg/day

From PubChem BioAssay AID1745844 (Carcinogenic Potency Database (CPDB), 2022)
